From patent US20230416225A1, “DIAMINOPYRIMIDINE CARBOXAMIDE INHIBITORS OF HPK1” (MERCK SHARP & DOHME LLC, priority 2020, published 2023)

biological target: T1, Human HPK1, catalytic domain (Homo sapiens, UniProt Q92918); assay: HPK1-SLP76 TR-FRET assay; format: biochemical; settings: 75 pM HPK1, 10 uM ATP, 10 nM SLP76, 30 min compound pre-incubation
T1 construct: purchased Carna
T1 sequence (Q92918 1-346): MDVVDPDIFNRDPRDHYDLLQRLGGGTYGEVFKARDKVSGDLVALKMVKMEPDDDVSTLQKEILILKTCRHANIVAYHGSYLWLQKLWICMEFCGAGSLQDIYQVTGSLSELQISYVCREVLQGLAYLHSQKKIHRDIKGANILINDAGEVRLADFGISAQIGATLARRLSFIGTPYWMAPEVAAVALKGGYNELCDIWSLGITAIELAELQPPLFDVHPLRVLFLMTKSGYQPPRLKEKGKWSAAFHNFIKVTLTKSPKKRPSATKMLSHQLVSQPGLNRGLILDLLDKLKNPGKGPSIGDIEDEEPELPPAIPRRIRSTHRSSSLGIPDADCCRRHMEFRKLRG

SMILES | IC50 [nM]
COc1cc2c(cc1Nc1ncc(C(N)=O)c(Nc3c(F)cccc3C(C)O)n1)CN(C)CC2 (racemic) [Example 23-2, (RAC)-4-((2-fluoro-6-(1-hydroxyethyl)phenyl)amino)-2-((6-methoxy-2-methyl-1,2,3,4-tetrahydroisoquinolin-7-yl)amino)pyrimidine-5-carboxamide] | 0.82
COc1cc2c(cc1Nc1ncc(C(N)=O)c(Nc3cccc(CN(C)CC(=O)O)c3)n1)CN(C)CC2 [Example 7-34, N-{[3-({5-carbamoyl-2-[(6-methoxy-2-methyl-1,2,3,4-tetrahydroisoquinolin-7-yl)amino]pyrimidin-4-yl}amino)phenyl]methyl}-N-methylglycine] | 2.43
NC(=O)c1cnc(Nc2cccc(F)c2)nc1Nc1cccc2c1CCNC2=O [Example 25-10, 2-[(3-fluorophenyl)amino]-4-[(1-oxo-1,2,3,4-tetrahydroisoquinolin-5-yl)amino]pyrimidine-5-carboxamide] | 1.22
COc1cc2c(cc1Nc1ncc(C(N)=O)c(Nc3cccc4c3CCN(CC(C)(C)O)C4)n1)CN(C)CC2 [Example 7-28, 4-{[2-(2-hydroxy-2-methylpropyl)-1,2,3,4-tetrahydroisoquinolin-5-yl]amino}-2-[(6-methoxy-2-methyl-1,2,3,4-tetrahydroisoquinolin-7-yl)amino]pyrimidine-5-carboxamide] | 0.51
COc1ccc(S(C)(=O)=O)cc1Nc1ncc(C(N)=O)c(Nc2cccc3c2CCNC3)n1 [Example 7-63, 2-{[2-methoxy-5-(methylsulfonyl)phenyl]amino}-4-[(1,2,3,4-tetrahydroisoquinolin-5-yl)amino]pyrimidine-5-carboxamide] | 103
Cn1ncc(Nc2ncc(C(N)=O)c(Nc3cccc4c3CCNC4=O)n2)c1C(F)F [Example 7-54, 2-{[5-(difluoromethyl)-1-methyl-1H-pyrazol-4-yl]amino}-4-[(1-oxo-1,2,3,4-tetrahydroisoquinolin-5-yl)amino]pyrimidine-5-carboxamide] | 82.5
COc1cc2c(cc1Nc1ncc(C(N)=O)c(Nc3cccc4c3CCNC4=O)n1)CN(C)CC2 [Example 7-27, 2-[(6-methoxy-2-methyl-1,2,3,4-tetrahydroisoquinolin-7-yl)amino]-4-[(1-oxo-1,2,3,4-tetrahydroisoquinolin-5-yl)amino]pyrimidine-5-carboxamide] | 0.13
CN1CCc2cc(F)c(Nc3ncc(C(N)=O)c(Nc4ccccc4CO)n3)cc2C1 [Example 7-42, 2-[(6-fluoro-2-methyl-1,2,3,4-tetrahydroisoquinolin-7-yl)amino]-4-{[2-(hydroxymethyl)phenyl]amino}py-rimidine-5-carboxamide] | 0.12
COc1cc2c(cc1Nc1ncc(C(N)=O)c(NCc3c(F)ccc(F)c3F)n1)CN(C)CC2 [Example 26-45, 2-[(6-methoxy-2-methyl-1,2,3,4-tetrahydroisoquinolin-7-yl)amino]-4-{[(2,3,6-trifluorophenyl)methyl]amino}pyrimidine-5-carboxamide] | 0.51
COc1cc2c(cc1Nc1ncc(C(N)=O)c(Nc3c(C)cccc3F)n1)CN(CC(C)(C)O)CC2 [Example 5-2] | 2.54
COc1cc2c(cc1Nc1ncc(C(N)=O)c(Nc3ccccc3C[C@@H](O)c3ccccc3)n1)CN(C)CC2 [Example 13-10, 4-({2-[(2R)-2-hydroxy-2-phenylethyl]phenyl}amino)-2-[(6-methoxy-2-methyl-1,2,3,4-tetrahydroisoquinolin-7-yl)amino]pyrimidine-5-carboxamide] | 326
COc1cc2c(cc1Nc1ncc(C(N)=O)c(Nc3ccccc3C3CC3)n1)CN(C)CC2 [Example 4-26, 4-[(2-cyclopropylphenyl)amino]-2-[(6-methoxy-2-methyl-1,2,3,4-tetrahydroisoquinolin-7-yl)amino]pyrimidine-5-carboxamide] | 0.17
N#CC1(c2ccc(Nc3ncc(C(N)=O)c(Nc4ccccc4CO)n3)cc2)CC1 [Example 7-108, 2-{[4-(1-cyanocyclopropyl)phenyl]amino}-4-{[2-(hydroxymethyl)phenyl]amino}py-rimidine-5-carboxamide] | 4.17
NC(=O)c1cnc(Nc2cc(F)cc(F)c2)nc1Nc1cccc2c1CCNC2=O [Example 25-31, 2-[(3,5-difluorophenyl)amino]-4-[(1-oxo-1,2,3,4-tetrahydroisoquinolin-5-yl)amino]pyrimidine-5-carboxamide] | 29.6
COc1cc2c(cc1Nc1ncc(C(N)=O)c(NC3CCCCCC3)n1)CN(C)CC2 [Example 26-1, 4-(cycloheptylamino)-2-[(6-methoxy-2-methyl-1,2,3,4-tetrahydroisoquinolin-7-yl)amino]pyrimidine-5-carboxamide] | 0.26
COc1cc2c(cc1Nc1ncc(C(N)=O)c(NC3C4CC3C4)n1)CN(C)CC2 (stereo not shown) [Example 26-4, 4-[(bicyclo[1.1.1]pentan-2-yl)amino]-2-[(6-methoxy-2-methyl-1,2,3,4-tetrahydroisoquinolin-7-yl)amino]pyrimidine-5-carboxamide] | 1.33

SMILES | IC50 [nM]
COc1ncccc1Nc1ncc(C(N)=O)c(Nc2cccc3c2CCNC3=O)n1 [Example 25-45, 2-[(2-methoxypyridin-3-yl)amino]-4-[(1-oxo-1,2,3,4-tetrahydroisoquinolin-5-yl)amino]pyrimidine-S-carboxamide] | 41.3
CC(C)(c1ccc(Nc2ncc(C(N)=O)c(Nc3cccc4c3CCNC4=O)n2)cc1)S(C)(=O)=O [Example 7-60, 2-({4-[2-(methylsulfonyl)propan-2-yl]phenyl}amino)-4-[(1-oxo-1,2,3,4-tetrahydroisoquinolin-5-yl)amino]pyrimidine-5-carboxamide] | 0.51
CCS(=O)(=O)N1CCc2cc(OC)c(Nc3ncc(C(N)=O)c(Nc4ccccc4Br)n3)cc2C1 [Example 10-6, 4-[(2-bromophenyl)amino]-2-{[2-(ethylsulfonyl)-6-methoxy-1,2,3,4-tetrahydroisoquinolin-7-yl]amino}pyrimidine-5-carboxamide] | 41.6
NC(=O)c1cnc(Nc2cccc3sccc23)nc1Nc1cccc2c1CCNC2=O [Example 25-43, 2-[(1-benzothiophen-4-yl)amino]-4-[(1-oxo-1,2,3,4-tetrahydroisoquinolin-5-yl)amino]pyrimidine-5-carboxamide] | 77.8
Cc1cc(Nc2ncc(C(N)=O)c(Nc3cccc4c3CCNC4=O)n2)cc(C(F)(F)F)c1 [Example 25-29, 2-{[3-methyl-5-(trifluoromethyl)phenyl]amino}-4-[(1-oxo-1,2,3,4-tetrahydroisoquinolin-5-yl)amino]pyrimidine-5-carboxamide] | 65.2
COc1cc2c(cc1Nc1ncc(C(N)=O)c(Nc3ccccc3Br)n1)CNCC2 [Example 9-1, 4-[(2-bromophenyl)amino]-2-[(6-methoxy-1,2,3,4-tetrahydroisoquinolin-7-yl)amino]pyrimidine-5-carboxamide] | 0.09
COc1cc2c(cc1Nc1ncc(C(N)=O)c(NCc3ccccc3)n1)CN(C)CC2 [Example 26-36, 4-(benzylamino)-2-[(6-methoxy-2-methyl-1,2,3,4-tetrahydroisoquinolin-7-yl)amino]pyrimidine-5-carboxamide] | 6.05
COc1cc2c(cc1Nc1ncc(C(N)=O)c(Nc3ccccc3CC3CCOCC3)n1)CN(C)CC2 [Example 13-2, 2-[(6-methoxy-2-methyl-1,2,3,4-tetrahydroisoquinolin-7-yl)amino]-4-({2-[(oxan-4-yl)methyl]phenyl}amino)pyrimidine-5-carboxamide] | 0.92
CNC(=O)c1cccc(Nc2nc(Nc3cc4c(cc3F)CCN(C)C4)ncc2C(N)=O)c1 [Example 7-41, 2-[(6-fluoro-2-methyl-1,2,3,4-tetrahydroisoquinolin-7-yl)amino]-4-{[3-(methylcarbamoyl)phenyl]amino} pyrimidine-5-carboxamide] | 8.85
COCCN1CCc2cc(OC)c(Nc3ncc(C(N)=O)c(Nc4ccccc4Br)n3)cc2C1 [Example 10-1, 4-[(2-bromophenyl)amino]-2-{[6-methoxy-2-(2-methoxyethyl)-1,2,3,4-tetrahydroisoquinolin-7-yl]amino}pyrimidine-5-carboxamide] | 0.44
NC(=O)c1cnc(Nc2cccc(C(F)(F)F)c2F)nc1Nc1cccc2c1CCNC2=O [Example 25-42, 2-{[2-fluoro-3-(trifluoromethyl)phenyl]amino}-4-[(1-oxo-1,2,3,4-tetrahydroisoquinolin-5-yl)amino]pyrimidine-5-carboxamide] | 89.9
NC(=O)c1cnc(Nc2cnn(C3CCNCC3)c2)nc1NC1CCc2cc(F)c(F)cc21 (stereo not shown) [Example 26-50, 4-[(5,6-difluoro-2,3-dihydro-1H-inden-1-yl)amino]-2-{[1-(piperidin-4-yl)-1H-pyrazol-4-yl]amino}pyrimidine-5-carboxamide] | 40.6
COc1cc2c(cc1Nc1ncc(C(N)=O)c(N[C@@H]3CCCc4cc(F)ccc43)n1)CN(C)CC2 [Example 26-46, 4-{[(1R)-6-fluoro-1,2,3,4-tetrahydronaphthalen-1-yl]amino}-2-[(6-methoxy-2-methyl-1,2,3,4-tetrahydroisoquinolin-7-yl)amino]pyrimidine-5-carboxamide] | 29.7
Cc1cccc(F)c1Nc1nc(Nc2cnn(CC(C)(C)O)c2)ncc1C(N)=O [Example 4-23, 4-[(2-fluoro-6-methylphenyl)amino]-2-{[1-(2-hydroxy-2-methylpropyl)-1H-pyrazol-4-yl]amino}pyrimidine-5-carboxamide] | 443
COc1cc2c(cc1Nc1ncc(C(N)=O)c(NC3CCC(C(F)(F)F)CC3)n1)CN(C)CC2 (stereo not shown) [Example 26-16, 2-[(6-methoxy-2-methyl-1,2,3,4-tetrahydroisoquinolin-7-yl)amino]-4-{[4-(trifluoromethyl)cyclohexyl]amino}pyrimidine-5-carboxamide] | 11.9
